The subject of test [1] is cucumber anthracnose pathogen (Colletotrichum lagenarium). In words: Fungicidal test for cucumber anthracnose (microplate, turbidity at 405 nm). It counts as cell-based. As to conditions: for inhibition at 0.025 ppm / inhibition at 0.1 ppm / inhibition at 0.4 ppm: Colletotrichum orbiculare, read-out: growth inhibition rate. As for the experimental part:
The compounds were dissolved in dimethyl sulfoxide to prepare a chemical agent solution.
A mixture of the prescribed concentration of the chemical agent solution, cucumber anthracnose pathogen (Colletotrichum lagenarium) conidia, and Vogel medium was prepared on a microplate and incubated at 20° C. in the dark for 7 days.
Each expected value was calculated using Colby's equation:
[formula] • where E represents the expected value of the growth inhibition rate (%), M represents the growth inhibition rate (%) when the component (I) is used alone, and N represents the growth inhibition rate (%) when the component (II) is used alone.

Test [2] has as its system soybean rust pathogen (Phakopsora pachyrhizi). The experiment in a line: Soybean rust control test (leaf discs). It counts as in vivo. The method, then: Compounds of component (I) and component (II) were dissolved in dimethyl sulfoxide and diluted with water to the prescribed concentration to prepare a chemical agent solution. A mixture of the prescribed concentration of the chemical agent solution and sterile water was prepared on a microplate, and leaf discs cut from soybean leaves were floated on the microplate. Uredospores of soybean rust pathogen (Phakopsora pachyrhizi) were inoculated and incubated at 25° C. for 9 days. The area percentage of lesions was determined by observing uredospore-forming lesions on the leaf discs, and the control value was calculated. The control value was calculated by the following formula:
Control value (%)=100−{Area percentage of lesions in treatment plot/Area percentage of lesions in untreatment plot}×100.
The results are shown in Tables 8 to 18, along with the expected values calculated as below. Each expected values was calculated from the fungicidal efficacy of a single application of compound of component (I) and the fungicidal efficacy of a single application of compound of component (II) by using Colby's equation:
[formula] • where E represents the expected value of the control value for the composition containing component (I) and component (II), M represents the control value (%) when the component (I) is used alone, and N represents the control value (%) when the component (II) is used alone. When the measured control value for the composition containing component (I) and component (II) is greater than the expected value E, the composition containing component (I) and composition (II) should exert a synergistic effect.

Setting [3] is: Table 19, component (II) alone (component (I): None): Ipflufenoquin 0.000026, Iminoctadine trialbesilate 0.0032, Cyflufenamid 10, Cyprodinil 0.00013, Potassium bicarbonate 0.08, Thiophanate-methyl 0.08, Picarbutrazox 0.016, Fludioxonil 0.0032, Florylpicoxamid 0.0032, Metyltetraprole 0.08, Mefentrifluconazole 0.4 ppm.
The mark [4] stands for this setting: Table 20, component (II) alone (component (I): None): Ipflufenoquin 0.00064, Iminoctadine trialbesilate 0.0032, Cyflufenamid 10, Cyprodinil 0.00013, Potassium bicarbonate 0.08, Thiophanate-methyl 0.4, Picarbutrazox 0.016, Fludioxonil 0.0032, Florylpicoxamid 0.0032, Metyltetraprole 0.08, Mefentrifluconazole 0.4 ppm.
Where [5] appears, read: Table 21, component (II) alone (component (I): None): Ipflufenoquin 0.00064, Iminoctadine trialbesilate 0.0032, Cyflufenamid 10, Cyprodinil 0.00013, Potassium bicarbonate 0.08, Thiophanate-methyl 0.4, Picarbutrazox 0.00064, Fludioxonil 0.0032, Florylpicoxamid 0.0032, Metyltetraprole 0.08, Mefentrifluconazole 0.4 ppm.
[6] abbreviates: Table 22, component (II) alone (component (I): None): Ipflufenoquin 0.00064, Iminoctadine trialbesilate 0.0032, Cyflufenamid 10, Cyprodinil 0.00013, Potassium bicarbonate 0.08, Thiophanate-methyl 0.4, Picarbutrazox 0.00064, Fludioxonil 0.0032, Florylpicoxamid 0.0032, Metyltetraprole 0.08, Mefentrifluconazole 0.4 ppm.
Where [7] appears, read: Table 23, component (II) alone (component (I): None): Ipflufenoquin 0.00064, Iminoctadine trialbesilate 0.0032, Cyflufenamid 10, Cyprodinil 0.000026, Potassium bicarbonate 0.08, Thiophanate-methyl 0.4, Picarbutrazox 0.00064, Fludioxonil 0.00064, Florylpicoxamid 0.0032, Metyltetraprole 0.08, Mefentrifluconazole 0.4 ppm.
[8] abbreviates: Table 24, component (II) alone (component (I): None): Ipflufenoquin 0.00064, Iminoctadine trialbesilate 0.0032, Cyflufenamid 10, Cyprodinil 0.00013, Potassium bicarbonate 0.08, Thiophanate-methyl 0.4, Picarbutrazox 0.00064, Fludioxonil 0.00013, Florylpicoxamid 0.0032, Metyltetraprole 0.08, Mefentrifluconazole 0.4 ppm.
[9] abbreviates: Table 14, component (II) alone (component (I): None): Inpyrfluxam 0.00025, Chlorothalonil 0.006, Thiophanate-methyl 0.0001, Tebuconazole 0.000025, Trifloxystrobin 0.0001, Fluazinam 0.006, Prothioconazole 0.000025, Florylpicoxamid 0.0001, Metominostrobin 0.0004 ppm.
The mark [10] stands for this setting: Table 16, component (II) alone (component (I): None): Inpyrfluxam 0.000025, Chlorothalonil 0.006, Thiophanate-methyl 0.0001, Tebuconazole 0.000025, Trifloxystrobin 0.0001, Fluazinam 0.006, Prothioconazole 0.000025, Florylpicoxamid 0.0001, Metominostrobin 0.0004 ppm.
The mark [11] stands for this setting: Table 17, component (II) alone (component (I): None): Inpyrfluxam 0.000026, Chlorothalonil 0.02, Thiophanate-methyl 0.0004, Tebuconazole 0.0001, Trifloxystrobin 0.0001, Fluazinam 0.006, Prothioconazole 0.000025, Florylpicoxamid 0.0001, Metominostrobin 0.0004 ppm.

As usually defined, the inhibition is the change of the read-out against control, counted positive when it falls.

The structures appear in SMILES notation. Where two headings read alike, the source gives them in different places.

For the compound `CCCCCCCCCCCCc1ccc(S(=O)(=O)O)cc1.CCCCCCCCCCCCc1ccc(S(=O)(=O)O)cc1.CCCCCCCCCCCCc1ccc(S(=O)(=O)O)cc1.NC(N)=NCCCCCCCCNCCCCCCCCN=C(N)N` [Iminoctadine trialbesilate], the growth inhibition rate in test [1] (setting [3]), in test [1] (setting [4]), in test [1] (setting [5]), in test [1] (setting [6]), in test [1] (setting [7]) and in test [1] (setting [8]) was 22% in each case.
In the case of `CC(O)(Cn1cncn1)c1ccc(Oc2ccc(Cl)cc2)cc1C(F)(F)F` (stereo not shown) [Mefentrifluconazole], the growth inhibition rate in test [1] (setting [3]), in test [1] (setting [4]), in test [1] (setting [5]), in test [1] (setting [6]), in test [1] (setting [7]) and in test [1] (setting [8]) was 64% throughout.
Turning to `N#Cc1c[nH]cc1-c1cccc2c1OC(F)(F)O2` [Fludioxonil], the growth inhibition rate in test [1] (setting [3]) was found to be 64%; in test [1] (setting [4]) it was 64%; in test [1] (setting [5]) it was 64%; in test [1] (setting [6]), 64%; in test [1] (setting [7]), 0%; in test [1] (setting [8]), 0%.
As for `COC(=O)NC(=S)Nc1ccccc1NC(=S)NC(=O)OC` [Thiophanate-methyl], the control value in test [2] (setting [9]) is listed as 27%; in test [2] (setting [10]), 27%; in test [2] (setting [11]), 66%. The growth inhibition rate in test [1] (setting [3]), in test [1] (setting [4]), in test [1] (setting [5]), in test [1] (setting [6]), in test [1] (setting [7]) and in test [1] (setting [8]) was 0% in each case.
With `O=C(Cc1ccc(-c2noc(C(F)(F)F)n2)cc1)N1CCC(=NOCC(F)(F)F)CC1` [Compound 10], the control value in test [2] (Compound 10 alone, 0.0063 ppm) is recorded as 0%; in test [2] (Compound 10 alone, 0.025 ppm) it was 27%; in test [2] (Compound 10 alone, 0.1 ppm), 42%; in test [2] (Compound 10 alone, 0.4 ppm), 66%; in test [2] (Compound 10 alone, 1.6 ppm), 94%. Moreover, in test [1] (Compound 10 alone), the inhibition at 0.025 ppm was determined as 63%. The inhibition at 0.1 ppm in test [1] (Compound 10 alone) turned out to be 52%. In test [1] (Compound 10 alone), the inhibition at 0.4 ppm was 96%.
Regarding `Cn1nnnc1/C(=N\OCc1cccc(NC(=O)OC(C)(C)C)n1)c1ccccc1` [Picarbutrazox], the growth inhibition rate in test [1] (setting [3]) is reported as 87%; in test [1] (setting [4]) it was 87%; in test [1] (setting [5]) it was 0%; in test [1] (setting [6]) it was 0%; in test [1] (setting [7]), 0%; in test [1] (setting [8]) it was 0%.
Regarding `CON=C1CCN(C(=O)Cc2ccc(-c3noc(C(F)(F)F)n3)cc2)CC1` [Compound 9], the control value in test [2] (Compound 9 alone, 0.0063 ppm) was 13%; in test [2] (Compound 9 alone, 0.025 ppm) it was 34%; in test [2] (Compound 9 alone, 0.1 ppm), 49%; in test [2] (Compound 9 alone, 0.4 ppm) it was 96%. Also, in test [1] (Compound 9 alone), the inhibition at 0.025 ppm is 42%. Also, in test [1] (Compound 9 alone), the inhibition at 0.1 ppm was 49%. Besides, the inhibition at 0.4 ppm in test [1] (Compound 9 alone) stood at 83%.
Turning to `CC(C)ON=C1CN(C(=O)Cc2ccc(-c3noc(C(F)(F)F)n3)cc2)C1` [Compound 7], the control value in test [2] (component (I) alone, 0.0063 ppm) was determined as 16%; in test [2] (component (I) alone, 0.025 ppm), 32%; in test [2] (component (I) alone, 0.1 ppm) it was 64%; in test [2] (component (I) alone, 0.4 ppm) it was 94%.
For the compound `CNC(=O)/C(=N/OC)c1ccccc1Oc1ccccc1` [Metominostrobin], the control value in test [2] (setting [9]), in test [2] (setting [10]) and in test [2] (setting [11]) was 27% throughout.
Regarding `O=C([O-])O.[K+]` [Potassium bicarbonate], the growth inhibition rate in test [1] (setting [3]), in test [1] (setting [4]), in test [1] (setting [5]), in test [1] (setting [6]), in test [1] (setting [7]) and in test [1] (setting [8]) was 53% throughout.
`O=C(Cc1ccccc1)N/C(=N\OCC1CC1)c1c(C(F)(F)F)ccc(F)c1F` [Cyflufenamid]: the growth inhibition rate in test [1] (setting [3]), in test [1] (setting [4]), in test [1] (setting [5]), in test [1] (setting [6]), in test [1] (setting [7]) and in test [1] (setting [8]) was 64% throughout.
Take `Cc1cccc(-n2nnn(C)c2=O)c1COc1ccn(-c2ccc(Cl)cc2)n1` [Metyltetraprole]: the growth inhibition rate in test [1] (setting [3]), in test [1] (setting [4]), in test [1] (setting [5]), in test [1] (setting [6]), in test [1] (setting [7]) and in test [1] (setting [8]) was 77% throughout.
On to `O=C(Cc1ccc(-c2noc(C(F)(F)F)n2)cc1)N1CCC(=NO)CC1` [Compound 12], for which the control value in test [2] (Compound 12 alone, 0.0063 ppm) worked out at 21%; in test [2] (Compound 12 alone, 0.025 ppm) it was 33%; in test [2] (Compound 12 alone, 0.1 ppm) it was 64%; in test [2] (Compound 12 alone, 0.4 ppm) it was 92%.
In the case of `CC(C)ON=C1CCN(C(=O)Cc2ccc(-c3noc(C(F)(F)F)n3)cc2)CC1` [Compound 11], the control value in test [2] (Compound 11 alone, 0.0063 ppm) is given as 6%; in test [2] (Compound 11 alone, 0.025 ppm), 15%; in test [2] (Compound 11 alone, 0.1 ppm), 52%; in test [2] (Compound 11 alone, 0.4 ppm) it was 70%; in test [2] (Compound 11 alone, 1.6 ppm) it was 84%.
As for `Cc1cc(C2CC2)nc(Nc2ccccc2)n1` [Cyprodinil], the growth inhibition rate in test [1] (setting [3]) is 12%; in test [1] (setting [4]), 12%; in test [1] (setting [5]), 12%; in test [1] (setting [6]), 12%; in test [1] (setting [7]), 0%; in test [1] (setting [8]) it was 12%.

Source of the values: US20240268388A1, “AGRICULTURAL AND HORTICULTURAL FUNGICIDAL COMPOSITION” (NIPPON SODA CO., LTD., priority 2021, published 2024).
